Measurements from US20100048536A1, “Novel Substituted Diaryl Azepine Derivatives as Integrin Ligands” (priority 2000, published 2010).

Target: T1, integrin αvβ3 (Homo sapiens, UniProt P05106+P06756)
T1 construct: from tissue; host or cells: human placenta
Test: Integrin αvβ3 assay (competition with vitronectin for binding to solid phase-bound integrin αvβ3)
Conditions: integrin αvβ3 from human placenta, qualitative ranking only
Method: For the identification and assessment of integrin αvβ3 ligands, a test system was used which was based on competition between the natural integrin αvβ3 ligand vitronectin and the test substance for binding to solid phase-bound integrin αvβ3
• Microtiter plates coated with 250 ng/ml of integrin αvβ3 in 0.05 M NaHCO3 pH 9.2; 0.1 ml/well; • saturation with 1% powdered milk/assay buffer; 0.3 ml/well; 0.5 h/RT • 3× washing with 0.05% Tween 20/assay buffer • test substance in 0.1% powdered milk/assay buffer, 50 μl/well+0 μg/ml or 2 μg/ml of human vitronectin (Boehringer Ingelheim T007) in 0.1% powdered milk/assay buffer, 50 μl/well; 1 h/RT • 3× washing with 0.05% Tween 20/assay buffer • 1 μg/ml of anti human vitronectin antibody coupled to peroxidase (Kordia SAVN-APHRP) in 0.1% powdered milk/assay buffer; 0.1 ml/well; 1 h/RT • 3× washing with 0.05% Tween 20/assay buffer • 0.1 ml/well of peroxidase substrate • stop reaction with 0.1 ml/well of 2 M H2SO4 • measurement of the absorption at 450 nm
Integrin αvβ3: Human placenta is solubilized with Nonidet and integrin αvβ3 affinity-purified on a GRGDSPK matrix (elution with EDTA). Impurities due to integrin αIIbβ3 and human serum albumin, and the detergent and EDTA are removed by anion-exchange chromatography. […]

For `CN1C(=O)c2ccccc2C(CC(=O)O)c2ccc(OCCCCNc3ccccn3)cc21` (stereo not shown) [Example I, {5-Methyl-6-oxo-3-{4-(2-pyridinylamino)-butoxy]-6,11-dihydro 5H-dibenzo[b,e]azepin-11-yl}acetic acid], the “IC50 values (concentration of the ligand at which 50% of the ligand is displaced)” value was “best result”.
